Values quoted from earlier work in US20200163962A1, “PHARMACEUTICAL COMPOSITION OF NILOTINIB” (SUN PHARMACEUTICAL INDUSTRIES LTD., priority 2016, published 2020).

Columns and labels:
[1] = particularly the hydrochloride
[2] = ingested with or after meals, particularly high fat meals

## Cc1cn(-c2cc(NC(=O)c3ccc(C)c(Nc4nccc(-c5cccnc5)n4)c3)cc(C(F)(F)F)c2)cn1 [Nilotinib, 4-methyl-N-[3-(4-methyl-1H-imidazol-1-yl)-5-(trifluoromethyl)phenyl]-3-[[4-(3-pyridinyl)-2-pyrimidinyl]amino]-benzamide]
Dose given 30 minutes after a high fat meal
  increase of systemic exposure (AUC) compared to the fasted state: 82%
[2]
  increase of Cmax with food: 112%
  increase of area under the plasma profile curve with food: 82%
[1]
  water solubility: poorly water soluble
